Assays:
[1] = Pharmacokinetic Assay (Protocol C): plasma levels after i.v. and oral administration to rats; type: in vivo, rat (male Sprague-Dawley); conditions: 15 mg/kg
Description: Male rats (Sprague-Dawley; body weight about 250-300 g) were acclimatized for about one week before the start of the study. […] Before treatment, rats were overnight fasted. For each compound to be assessed, three rats were treated intravenously (injection in the tail vein as a bolus) with a single dose of 15 mg/kg (as free base or free acid if needed) body weight. Other three rats were treated orally (single bolus dose by gastric gavage) with 15 mg/kg of the same compound. In same cases, according to the detection limit of each particular compound, and its availability in stock, these standard doses were modified as needed.
Blood samples were collected into syringes especially prepared for use with the cannulated animals via the SCV cannula. Under standard conditions, blood samples (0.2 mL) were transferred into heparinized tubes at the following times: 0 (pre-dose), 2, 4, 8, 16, 30, 45, 60, 90 min, 2, 4, 6, 8 and 24 h after iv administration; 0 (pre-dose), 5, 10, 30, 45, 60, 90 min, 2, 4, 6, 8, and 24 h after oral administration. Plasma was obtained immediately by centrifugation (about 10,000 rpm for 3 min) and stored at -80° C. till analysis. Plasma samples were assayed for parent drug concentrations using an appropriate analytical method. Under standard conditions, liquid chromatography--tandem mass spectrometry (LC/MS-MS) was used.
Non-compartmental pharmacokinetic calculations were performed with the aid of Pharm-NCA package (SIMED, France). Maximum plasma concentration, Cmax, and the corresponding time, tmax, were read as the coordinates of the highest raw-data point for individual plasma profiles. Terminal phase was evaluated by graphic judgement by eye; terminal rate constant, was calculated as the slope of the terminal linear portion of natural log-transformed plasma concentrations vs. time curve, obtained using linear regression. Terminal half-life, t1/2,z, was calculated as ln(2)/lz. The area under the plasma concentration-time curve was estimated by the linear trapezoidal rule up to the last measured concentration (AUC(0-tz)) and extrapolated to infinity assuming monoexponential decay, using the formula AUC=AUC(0-tz)+C(tz)/lz, where C(tz) is the measured concentration of the last point with detectable concentration. Following iv dosing, systemic clearance was obtained using the formula Cl=Dose/AUC. According to Protocol C, the pharmacokinetic in rats of some representative compounds within the present invention was evaluated. Significant pharmacokinetic data obtained in rats at a 15 mg/kg dose were as follows: […]

[2] = system: Human DU145 Prostatic Carcinoma cells; assay: Antitumor Efficacy Assay (Protocol D): DU145 tumor growth inhibition in Balb nu/nu mice; type: in vivo, human tumor in Balb nu/nu mice; conditions: 100 mg/kg b.i.d., i.p., day +1 to day +20; p<0.01, Dunnett method
Text: The novel compounds of formula (I) can be used in a method of treatment of the human or animal body by therapy. The condition of a human or animal patient may thus be improved. In particular, compounds the present invention can be used to limit the local growth of established tumors, and to limit growth of secondary metastases. The following protocol was used to evaluate the antitumoral efficacy in vivo of the compounds of the present invention:
Human DU145 Prostatic Carcinoma cells (2×10^6) were injected subcutaneously at day 0 in Balb nu/nu mice. Treatment with inhibitor (i.p. injection) started at day +1 and terminated at day +20. Animal were sacrificed at day +21, and the tumors exised and weighted. Percent tumor growth inhibition vs. control mice (% TGI) was calculated as follows:
% TGI=100-(Mean Tumor Weight in treated group)/(Mean Tumor Weight in […]

[3] = target: T1, MMP-3 (human stromelysin-1) (Homo sapiens, UniProt P08254); assay: Biochemical Assay (Protocol A): inhibition of human stromelysin-1, fluorimetric peptide substrate; conditions: MMP-3, pH 7.4, 37° C.
T1 construct: host or cells: E. coli or baculovirus-infected Sf9 insect cells
Text: (§1) As mentioned above, although low molecular weight MMP inhibitors, including hydroxamates of general formula (A), are already known, there is a strong need for better and diversified molecules for their use in medicine, that is in particular in the control or prevention of degenerative joint diseases such as rheumatoid arthritis and osteoarthritis, or in the management of multiple sclerosis, or in the treatment of invasive tumors. […] For example, the following protocol was used to assess the biochemical activity of compounds of formula (I) against MMP-1, MMP-2, and MMP-3 (respectively, human interstitial collagenase, gelatinase A, and stromelysin-1).
(§2) Human gelatinase-A (MMP-2) was obtained as pro-enzyme (72 kDa) and was activated with 1 mM 4-aminophenylmercuric acetate for 30 min at 37° C. immediately prior to use. Human stromelysin-1 (MMP-3) was obtained as a recombinant pro-enzyme isolated either from E. coli or from baculovirus infected Sf9 insect cells and activated either by heat (1 h, 55° C.) or by 5 mg/l trypsin (30 min, 37° C.) before addition of soybean trypsin inhibitor, finally removed by centrifugation.
(§3) All enzyme assays to determine values of the enzyme-inhibitor dissociation constants were performed using the peptide substrate (7-methoxycoumarin-4-yl)Acetyl-Pro-Leu-Gly-Leu-(3-[2,4-dinitrophenyl]-L-2,3-diaminopropionyl)-Ala-Arg-NH2 (Mca-Pro-Leu-Gly-Leu-Dpa-Ala-Arg--NH2) (C. G. Knight et al., FEBS Lett. 296:263-266, 1992). The enzymes cleave at the Gly-Leu bond removing the internally quenching Dpa group. The release of the highly fluorescent peptide Mca-Pro-Leu was followed fluorimetrically setting the excitation wavelength at 326 nm (bandwidth 5 nm) and the emission at 392 nm (bandwidth 20 nm).
(§4) Continuous fluorescence assay was carried out using a Perkin Elmer LS-50 Fluorescence Spectrophotometer fitted with a thermostatted four position stirring cell changer. Inhibitors were dissolved in the assay buffer ([…] Tris/HCl pH 7.4 containing 0.15 M NaCl, 10 mM CaCl2, 0.01 mM ZnCl2 and 0.05% Brij 35) thermostatted at 37° C. The reaction was started by the addition of substrate ([…]), followed by the addition of the enzyme (e.g. 1.0 nM collagenase, 0.04 nM gelatinase, or 3.0 nM stromelysin) and the increase in fluorescence was monitored over 30 min. The run was repeated at different concentrations of inhibitors in the range 0.1-10000 nM and data at inhibitor concentration in the region if their enzyme-inhibitor dissociation constants were used for calculation.
(§5) Substrate consumption was within 5% of the initial concentration and data outside this range were discarded. The Michaelis constants (Km) for the enzyme-substrate complexes is […] or greater (C. G. Knight et al., reference above), so that the factor (1+S/Km) can be approximated to unity without appreciable error.

[4] = target: T2, MMP-1 (human interstitial collagenase) (Homo sapiens, UniProt P03956); assay: Biochemical Assay (Protocol A): inhibition of human collagenase, fluorimetric peptide substrate; conditions: MMP-1, pH 7.4, 37° C.
T2 construct: truncated recombinant enzyme encompassing residues 101-269
T2 sequence (P03956 101-269): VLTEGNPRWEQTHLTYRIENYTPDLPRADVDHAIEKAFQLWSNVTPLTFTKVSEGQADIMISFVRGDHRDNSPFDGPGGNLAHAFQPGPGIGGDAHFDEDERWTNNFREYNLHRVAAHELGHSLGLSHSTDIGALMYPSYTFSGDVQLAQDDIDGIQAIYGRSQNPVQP
Text: as §1, §2, §3, §4, §5

[5] = target: T3, MMP-2 (human gelatinase A) (Homo sapiens, UniProt P08253); assay: Biochemical Assay (Protocol A): inhibition of human gelatinase A, fluorimetric peptide substrate; conditions: MMP-2, pH 7.4, 37° C.
T3 sequence (P08253 110-660): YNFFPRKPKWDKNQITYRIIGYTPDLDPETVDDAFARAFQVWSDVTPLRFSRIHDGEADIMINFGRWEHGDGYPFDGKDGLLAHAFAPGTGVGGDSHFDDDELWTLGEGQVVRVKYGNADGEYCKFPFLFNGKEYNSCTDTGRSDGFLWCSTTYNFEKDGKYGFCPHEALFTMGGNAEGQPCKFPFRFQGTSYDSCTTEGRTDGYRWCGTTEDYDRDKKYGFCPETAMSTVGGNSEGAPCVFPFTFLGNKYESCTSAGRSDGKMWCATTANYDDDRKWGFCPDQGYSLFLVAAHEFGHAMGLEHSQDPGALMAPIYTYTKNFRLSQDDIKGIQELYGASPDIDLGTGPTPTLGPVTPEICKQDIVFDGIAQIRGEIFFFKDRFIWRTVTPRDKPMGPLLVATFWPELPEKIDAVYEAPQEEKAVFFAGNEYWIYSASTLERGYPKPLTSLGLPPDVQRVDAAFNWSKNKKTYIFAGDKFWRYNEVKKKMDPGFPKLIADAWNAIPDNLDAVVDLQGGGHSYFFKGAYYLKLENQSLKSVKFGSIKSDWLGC
Text: as §1, §2, §3, §4, §5

T1 sequence (P08254 100-477): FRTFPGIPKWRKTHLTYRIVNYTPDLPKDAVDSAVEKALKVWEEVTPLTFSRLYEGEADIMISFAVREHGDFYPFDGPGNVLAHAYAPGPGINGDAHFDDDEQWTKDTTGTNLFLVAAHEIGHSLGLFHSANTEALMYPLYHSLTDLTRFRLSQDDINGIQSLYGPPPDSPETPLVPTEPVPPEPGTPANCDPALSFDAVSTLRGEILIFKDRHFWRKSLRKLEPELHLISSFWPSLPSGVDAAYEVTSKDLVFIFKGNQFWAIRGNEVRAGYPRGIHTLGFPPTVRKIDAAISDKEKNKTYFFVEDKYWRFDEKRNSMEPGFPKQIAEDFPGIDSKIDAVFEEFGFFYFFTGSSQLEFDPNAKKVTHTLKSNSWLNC

Q: With CNC(=O)[C@@H](NC(=O)[C@H](CC(C)C)[C@](O)(COC(=O)NC1CCCCC1)C(=O)NO)C(C)(C)C [Example 16, [(2R,3S)-3-(N-Cyclohexylaminocarbonyl)oxymethyl-3-hydroxy-4-hydroxyamino-2-isobutylsuccinyl]-L-tert-leucine-N-methylamide] as the molecule, how does the “plasma clearance compared with literature hydroxamic acid MMP inhibitors” value ([1]; to our best knowledge) read?
A: The value was “inferior to that reported for any hydroxamic acid MMP inhibitor disclosed in the literature”.

Q: What about the AUC iv ([1]; iv) of the same molecule?
A: Its AUC iv is 1.35 mg·min/mL.

Q: What about the half-life ([1]; rat, plasma, terminal half-life, read-out: t1/2,z (converted)) of the same molecule?
A: Its half-life is 2.3 h.

Q: What about the clearance ([1]; rat, plasma, iv) of the same molecule?
A: Its clearance is 11 mL/min/kg.

Q: And the AUC ([1]; rat, plasma, oral)?
A: Its AUC is 1330 ng·h/mL.

Q: And the “TGI (percent tumor growth inhibition vs. control)” value [2]?
A: Its value is 83%.

Q: And the Ki [3]?
A: Its Ki is 23 nM.

Q: What about the Ki [4] of the same molecule?
A: The Ki was 1.5 nM.

Q: And the Ki [5]?
A: Its Ki is 3.2 nM.

Source: patent publication US6194451A, “Matrix metalloproteinase inhibitors” (Pharmacia & Upjohn S.p.A., priority 1997, dated 2001)
